Targets include BRAF^V600E (Homo sapiens, UniProt P15056, V600E); BRAF^KD (Homo sapiens, UniProt P15056); CRAF^SSDD (Homo sapiens, UniProt P04049, Y340D/Y341D); CRAF^WT (Homo sapiens, UniProt P04049).
Common to all, as to experiment: ATP and MEK titrations by TR-FRET (Michaelis constants, substrate inhibition)
For orientation: TR-FRET usually uses a lanthanide donor and a delayed reading to cut background.

The target of the next assay is T1, ARAF^SSDD (Homo sapiens, UniProt P10398, G300S/Y301D/Y302D).
T1 sequence (P10398 274-606 G300S/Y301D/Y302D): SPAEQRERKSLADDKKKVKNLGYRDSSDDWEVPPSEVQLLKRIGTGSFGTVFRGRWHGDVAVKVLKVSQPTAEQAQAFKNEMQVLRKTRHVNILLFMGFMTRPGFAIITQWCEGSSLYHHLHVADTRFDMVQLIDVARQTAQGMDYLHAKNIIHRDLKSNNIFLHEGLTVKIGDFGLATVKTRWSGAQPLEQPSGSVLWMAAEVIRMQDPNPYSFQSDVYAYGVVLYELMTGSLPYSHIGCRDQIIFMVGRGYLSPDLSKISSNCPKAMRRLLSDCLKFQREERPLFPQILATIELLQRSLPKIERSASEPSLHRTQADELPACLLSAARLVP

A further assay concerns the target T2, BRAF^WT (Homo sapiens, UniProt P15056).
T2 construct: His6 (N); made in house; host or cells: SF9 insect cells (baculovirus)
It is filed as biochemical. The following applies: apparent Ki of substrate inhibition by ATP.

Structures are written as SMILES. Bounds are passed on as bounds.

T2 sequence (P15056 419-766): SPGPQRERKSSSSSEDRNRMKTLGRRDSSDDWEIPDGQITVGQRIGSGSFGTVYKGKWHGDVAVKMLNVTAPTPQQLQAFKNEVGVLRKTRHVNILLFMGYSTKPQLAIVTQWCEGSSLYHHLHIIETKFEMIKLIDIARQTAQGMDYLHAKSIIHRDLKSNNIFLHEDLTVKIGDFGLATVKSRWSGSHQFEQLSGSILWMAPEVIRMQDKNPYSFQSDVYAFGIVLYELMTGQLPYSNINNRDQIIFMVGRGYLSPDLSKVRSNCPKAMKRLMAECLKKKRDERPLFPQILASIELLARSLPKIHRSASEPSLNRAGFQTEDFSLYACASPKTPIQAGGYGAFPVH

In general, Km refers to the substrate concentration at which the rate is half of its maximum. `Nc1ncnc2c1ncn2[C@@H]1O[C@H](COP(=O)(O)OP(=O)(O)OP(=O)(O)O)[C@@H](O)[C@H]1O` [ATP]: the Ki is 6.34 ± 4.07 mM on BRAF^V600E (read-out: Ki-ATP, BRAF^V600E, apparent Ki of substrate inhibition by ATP); 3.53 ± 0.58 mM at BRAF^KD (read-out: Ki-ATP, BRAF^KD, apparent Ki of substrate inhibition by ATP); above 15 mM on CRAF^SSDD (read-out: Ki-ATP, CRAF^SSDD, apparent Ki of substrate inhibition by ATP); above 15 mM on CRAF^WT (read-out: Ki-ATP, CRAF^WT, apparent Ki of substrate inhibition by ATP); above 15 mM at ARAF^SSDD (read-out: Ki-ATP, ARAF^SSDD, apparent Ki of substrate inhibition by ATP); 4.84 ± 2.85 mM at BRAF^WT. The Km at BRAF^V600E (read-out: Km-ATP, BRAF^V600E, ATP titration, substrate inhibition fit) came to 12.6 ± 7.8 µM; at CRAF^SSDD (read-out: Km-ATP, CRAF^SSDD, ATP titration, substrate inhibition fit), 0.73 ± 0.38 µM; on CRAF^WT (read-out: Km-ATP, CRAF^WT, ATP titration, substrate inhibition fit), 1.56 ± 1.5 µM; on ARAF^SSDD (read-out: Km-ATP, ARAF^SSDD, ATP titration, substrate inhibition fit), 1.58 ± 0.19 µM. Moreover, at BRAF^KD (ATP titration, substrate inhibition fit), the “Km-ATP, BRAF^KD” value is 0.00018 ± 4e-05 mM.

(Values after article PMC12630025, “Characterization and inhibitor sensitivity of ARAF, BRAF, and CRAF kinases [drawing 1]” (The Journal of Biological Chemistry, 2025).)
